Earlier results on 6 compounds are cited in patent US20010007868A1, “COMPOSITIONS FOR INHIBITING INTESTINAL IRON ABSORPTION” (priority 1998, published 2001).

Read-outs that look alike come from different tables or passages of the source.

For data set [1] the following is noted: rats.
For data set [2] the following is noted: humans.
Data set [3] relates to intestinal absorption of iron (IAI).
The conditions of data set [4]: fertile women, 50 mg/day over a 10 week period.

For the compound `O=C(O)CCCC[C@@H]1CCSS1` (racemic) [Lipoic acid], the “effect on insulin resistance” value in data set [1] and in data set [2] was “improve insulin resistance” throughout.
For `Cc1c(O)c(=O)ccn1C` [Deferiprone], the “reduction of atherogenesis, in-vivo results” value is listed as “not statistically significant”.
For the compound `O=C1O[C@H]([C@@H](O)CO)C(O)=C1O` [ascorbic acid], the “effect on IAI” value in data set [3] (with phytate-containing meal) is “enhances IAI and offsets the inhibitory effect of phytate”.
On to `O=C([O-])[O-].[Ca+2]` [calcium carbonate], for which, in data set [3] (doses of about 300 mg per meal, both heme and non-heme iron sources), the “decrease of IAI” value is recorded as 50-60%.
Regarding `O=P([O-])([O-])O[C@H]1[C@H](OP(=O)([O-])O)[C@H](OP(=O)([O-])[O-])[C@H](OP(=O)([O-])O)[C@@H](OP(=O)([O-])[O-])[C@@H]1OP(=O)([O-])O.[Na+].[Na+].[Na+].[Na+].[Na+].[Na+].[Na+].[Na+].[Na+]` [sodium phytate], the “reduction of IAI” value in data set [3] (dose between 50-300 mg consumed at the time of a meal) is “about 85%”.
As to `[Zn]` [zinc], the “reduction of serum ferritin levels” value in data set [4] is “about 20%”.
